The conditions of series [1]: human, in vivo.
Description: The subjects were randomized 24 h in advance in one of the two following groups. Group A: at least 10 h after fasting, oral flumatinib administration of 400 mg (2 tablets, day 1, first dose); the washout period was 14 days, half an hour after high-fat diet (timed from the start of diet) oral flumatinib administration of 400 mg (2 tablets, day 15,second dose). Subjects in group B followed the opposite administration sequence from those in group A. In groups A and B, the high-fat diet contained 800 ~ 1000Kcal (about 50% from fat) (meal composition is detailed Table 1).
Blood samples for pharmacokinetic (PK) evaluation were collected at 0 h before the initiation of dosing (pre-dose), and at 0.5, 1, 1.5, 2, 2.5, 3, 4, 5, 6, 8, 10, 12, 24, 48, 72, and 96 h after dosing. Blood samples were centrifuged at 2000g for 10 min at 4 ℃. Centrifugation was completed within 60 min after sample collection. The plasma was stored at − 70 °C for further analysis. Plasma concentrations of flumatinib and its main metabolites (M1 and M3) were determined using liquid chromatography-mass spectrometry (LC–MS/MS) [20].
Phoenix WinNonlin Version 7.0 (Pharsight Corporation, Sunnyvale, CA, USA) software was used to calculate the pharmacokinetic parameters (Tmax, Cmax, AUC0–t, AUC0–∞, t1/2, V/F, CL/F) of flumatinib and its main metabolites using a non-compartmental method (NCA module). Linear Up Log Down trapezoidal method was used for AUC calculation. The BE module of WinNonLin was used to analyze AUC0–t, AUC0–∞, and Cmax of flumatinib in fed and fasting states after logarithmic conversion. The treatment group (fasting, high-fat diet), the treatment sequence (A, B), and treatment phase were fixed effects in the model, and the subjects nested in the sequence were random effects. The adjusted mean difference (fasting/high-fat diet) and its 90% confidence interval estimated by the model, were taken as the negative number to obtain the corresponding PK parameter geometric mean ratio (postprandial/fasting), to estimate its 90% confidence interval, and to evaluate the effect of a high-fat diet on the pharmacokinetics of flumatinib.
The conditions of series [2]: in vivo; cited from earlier work.
On the set-up of series [3]: method as in PMID 18024884. To be noted: cited from earlier work.
Details of series [4]: method as in PMID 26096139. To be noted: healthy subjects; cited from earlier work.
On the set-up of series [5]: method as in PMID 25511575. To be noted: healthy subjects; cited from earlier work.

By Cmax is commonly meant the peak of the concentration-time curve.

Take `Cc1ncc(NC(=O)c2ccc(CN3CCNCC3)c(C(F)(F)F)c2)cc1Nc1nccc(-c2cccnc2)n1` [M1, N-desmethyl flumatinib]: in series [1], the AUC0–t was found to be 231 ± 101 ng·h/mL and the Cmax is 54.7 ± 25.5 ng/mL. In series [1] (po, 400 mg), the “Increase of AUC0–t after high-fat diet over fasted state” value was 1.6 fold, the “Increase of AUC0–∞ after high-fat diet over fasted state” value was found to be 1.6 fold and the “Increase of Cmax after high-fat diet over fasted state” value is 1.9 fold. In addition, in series [2], the “Metabolite in plasma relative to the parent drug in plasma” value was “approximately 10%”.

For the compound `CS(=O)(=O)CCNCc1ccc(-c2ccc3ncnc(Nc4ccc(OCc5cccc(F)c5)c(Cl)c4)c3c2)o1` [lapatinib], in series [3], the “Increase in bioavailability after high-fat diet” value was 325% and the “Increase in bioavailability after low-fat diet” value is 167%.

In the case of `N#Cc1ccnc(N2C(=O)CC[C@H]2C(=O)N(c2cncc(F)c2)[C@H](C(=O)NC2CC(F)(F)C2)c2ccccc2Cl)c1` [ivosidenib], in series [4], the “Increase in Cmax after a high-fat diet compared to fasting” value was 98%.

Consider `Cc1cn(-c2cc(NC(=O)c3ccc(C)c(Nc4nccc(-c5cccnc5)n4)c3)cc(C(F)(F)F)c2)cn1` [nilotinib], for which, in series [5], the “AUC higher when taken with food than fasting” value is given as 82% and the “Cmax higher when taken with food than fasting” value was 112%.

The record behind these values is article PMC7479006, “Effect of high-fat diet on the pharmacokinetics and safety of flumatinib in healthy Chinese subjects” (Cancer Chemotherapy and Pharmacology, 2020).
